In ChEMBL document CHEMBL4261637, “Discovery of a non-toxic [1,2,4]triazolo[1,5-a]pyrimidin-7-one (WS-10) that modulates ABCB1-mediated multidrug resistance (MDR)” (Bioorg Med Chem, 2018):
Activity calls are given as the source filed them. The calls are words filed in the database; no cut-off is given here.

Legend:
TE-1 = assay: Cytotoxicity against human TE1 cells at 10 to 20 uM after 72 hrs by MTT assay; assay type: cell-based; details: te-1, 72 h
SGC-7901 = assay: Cytotoxicity against human SGC7901 cells at 10 to 20 uM after 72 hrs by MTT assay; assay type: cell-based; details: sgc-7901, 72 h
A549 = assay: Cytotoxicity against human A549 cells at 10 to 20 uM after 72 hrs by MTT assay; assay type: cell-based; details: a549, 72 h
ECa-109 cell line = assay: Cytotoxicity against human EC109 cells at 10 to 20 uM after 72 hrs by MTT assay; assay type: cell-based; details: eca-109, 72 h
MGC-803 = assay: Cytotoxicity against human MGC803 cells at 10 to 20 uM after 72 hrs by MTT assay; assay type: cell-based; details: mgc-803, 72 h
SW-620 [1] = assay: Potentiation of paclitaxel-induced cytotoxicity in human SW620 cells assessed as fold reduction in paclitaxel IC50 at 10 uM after 72 hrs by MTT assay relative to paclitaxel alone; assay type: functional
SW-620 [2] = assay: Potentiation of paclitaxel-induced cytotoxicity in human SW620 cells assessed as fold reduction in paclitaxel IC50 at 20 uM after 72 hrs by MTT assay relative to paclitaxel alone; assay type: functional
SW-620 [3] = assay: Potentiation of doxorubicin-induced cytotoxicity in human SW620 cells assessed as fold reduction in doxorubicin IC50 at 10 uM after 72 hrs by MTT assay relative to doxorubicin alone; assay type: functional
SW-620 [4] = assay: Potentiation of doxorubicin-induced cytotoxicity in human SW620 cells assessed as fold reduction in doxorubicin IC50 at 20 uM after 72 hrs by MTT assay relative to doxorubicin alone; assay type: functional
SW-620 [5] = assay: Potentiation of cisplatin-induced cytotoxicity in human SW620 cells assessed as fold reduction in cisplatin IC50 at 10 uM after 72 hrs by MTT assay relative to cisplatin alone; assay type: functional
SW-620 [6] = assay: Potentiation of cisplatin-induced cytotoxicity in human SW620 cells assessed as fold reduction in cisplatin IC50 at 20 uM after 72 hrs by MTT assay relative to cisplatin alone; assay type: functional
HEK-293T [7] = assay: Potentiation of paclitaxel-induced cytotoxicity in human HEK293T/NC cells assessed as fold reduction in paclitaxel IC50 at 10 uM after 72 hrs by MTT assay relative to paclitaxel; assay type: functional
HEK-293T [8] = assay: Potentiation of paclitaxel-induced cytotoxicity in human HEK293T/NC cells assessed as fold reduction in paclitaxel IC50 at 20 uM after 72 hrs by MTT assay relative to paclitaxel; assay type: functional
HEK-293T [9] = assay: Potentiation of doxorubicin-induced cytotoxicity in human HEK293T/NC cells assessed as fold reduction in doxorubicin IC50 at 10 uM after 72 hrs by MTT assay relative to doxorubicin; assay type: functional
HEK-293T [10] = assay: Potentiation of doxorubicin-induced cytotoxicity in human HEK293T/NC cells assessed as fold reduction in doxorubicin IC50 at 20 uM after 72 hrs by MTT assay relative to doxorubicin; assay type: functional
HEK-293T [11] = assay: Potentiation of cisplatin-induced cytotoxicity in human HEK293T/NC cells assessed as fold reduction in cisplatin IC50 at 10 uM after 72 hrs by MTT assay relative to cisplatin; assay type: functional
[12] = target: T1, ATP-dependent translocase ABCB1 (Homo sapiens, UniProt P08183); assay: Inhibition of ABCB1 in human SW620/AD300 cells assessed as intracellular accumulation of paclitaxel at 10 to 20 uM after 72 hrs by UPLC analysis; assay type: cell-based
SW620/AD300 [13] = assay: Effect on ABCB1 expression in human SW620/AD300 cells at 20 uM up to 96 hrs by Western blot analysis; assay type: functional, cell-based
SW620/AD300 [14] = assay: Effect on ABCB1 expression in human SW620/AD300 cells at 10 to 20 uM by Western blot analysis; assay type: functional, cell-based
SW620/AD300 [15] = assay: Effect on subcellular localization of ABCB1 in human SW620/AD300 cells at 10 to 20 uM after 72 hrs by Hoechst 33342 staining-based immunofluorescence assay; assay type: functional, cell-based
[16] = target: T1, ATP-dependent translocase ABCB1; assay: Binding affinity to ABCB1 in human SW620/AD300 cells assessed as thermal stabilization incubated for 30 mins at 43 to 80 degC by CETSA; assay type: cell-based; details: 0.5 h
SW-620 [17] = assay: Potentiation of paclitaxel-induced cytotoxicity in human SW620 cells assessed as fold reduction in paclitaxel IC50 at 4 uM after 72 hrs by MTT assay relative to paclitaxel alone; assay type: functional
SW-620 [18] = assay: Potentiation of doxorubicin-induced cytotoxicity in human SW620 cells assessed as fold reduction in doxorubicin IC50 at 4 uM after 72 hrs by MTT assay relative to doxorubicin alone; assay type: functional
SW-620 [19] = assay: Potentiation of cisplatin-induced cytotoxicity in human SW620 cells assessed as fold reduction in cisplatin IC50 at 4 uM after 72 hrs by MTT assay relative to cisplatin alone; assay type: functional
HEK-293T [20] = assay: Potentiation of paclitaxel-induced cytotoxicity in human HEK293T/NC cells assessed as fold reduction in paclitaxel IC50 at 4 uM after 72 hrs by MTT assay relative to paclitaxel; assay type: functional
HEK-293T [21] = assay: Potentiation of doxorubicin-induced cytotoxicity in human HEK293T/NC cells assessed as fold reduction in doxorubicin IC50 at 4 uM after 72 hrs by MTT assay relative to doxorubicin; assay type: functional
HEK-293T [22] = assay: Potentiation of cisplatin-induced cytotoxicity in human HEK293T/NC cells assessed as fold reduction in cisplatin IC50 at 4 uM after 72 hrs by MTT assay relative to cisplatin; assay type: functional

T1 sequence (P08183 whole entry): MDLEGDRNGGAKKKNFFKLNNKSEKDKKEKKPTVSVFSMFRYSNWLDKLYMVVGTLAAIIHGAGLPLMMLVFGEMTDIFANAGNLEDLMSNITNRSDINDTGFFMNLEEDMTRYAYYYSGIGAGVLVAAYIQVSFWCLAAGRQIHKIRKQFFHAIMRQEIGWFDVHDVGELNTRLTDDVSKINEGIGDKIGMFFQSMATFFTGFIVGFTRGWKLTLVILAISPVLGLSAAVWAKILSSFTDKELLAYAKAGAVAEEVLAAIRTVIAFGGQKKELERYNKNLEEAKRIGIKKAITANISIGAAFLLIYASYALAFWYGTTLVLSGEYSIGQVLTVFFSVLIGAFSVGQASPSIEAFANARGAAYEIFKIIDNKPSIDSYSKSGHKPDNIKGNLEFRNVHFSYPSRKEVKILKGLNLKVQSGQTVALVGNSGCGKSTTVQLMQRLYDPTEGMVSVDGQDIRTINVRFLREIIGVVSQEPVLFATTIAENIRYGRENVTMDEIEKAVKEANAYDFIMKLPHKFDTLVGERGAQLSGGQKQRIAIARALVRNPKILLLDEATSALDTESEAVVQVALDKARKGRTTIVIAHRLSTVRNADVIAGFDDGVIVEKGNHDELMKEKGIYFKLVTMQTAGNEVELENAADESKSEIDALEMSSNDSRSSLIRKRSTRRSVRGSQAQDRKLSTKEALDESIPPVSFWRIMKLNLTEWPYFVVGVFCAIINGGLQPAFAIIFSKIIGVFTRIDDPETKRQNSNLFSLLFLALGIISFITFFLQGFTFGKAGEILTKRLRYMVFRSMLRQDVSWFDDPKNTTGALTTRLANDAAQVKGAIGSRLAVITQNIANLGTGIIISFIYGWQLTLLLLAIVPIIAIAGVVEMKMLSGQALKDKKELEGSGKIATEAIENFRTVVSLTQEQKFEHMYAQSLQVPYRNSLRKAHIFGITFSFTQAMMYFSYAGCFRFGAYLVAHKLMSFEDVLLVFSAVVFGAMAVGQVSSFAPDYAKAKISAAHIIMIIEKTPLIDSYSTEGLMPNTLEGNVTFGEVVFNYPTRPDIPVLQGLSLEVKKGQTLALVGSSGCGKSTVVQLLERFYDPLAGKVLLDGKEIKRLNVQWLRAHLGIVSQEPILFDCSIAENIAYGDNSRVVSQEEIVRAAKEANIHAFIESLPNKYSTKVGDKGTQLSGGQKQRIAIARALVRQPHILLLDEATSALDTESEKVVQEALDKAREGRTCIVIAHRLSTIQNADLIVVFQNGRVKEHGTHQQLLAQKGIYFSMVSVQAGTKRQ

O=c1cc(-c2ccccc2)[nH]c2nc(SCc3nc4ccccc4[nH]3)nn12
Activity (TE-1): Non-Toxic | Activity (SGC-7901): Non-Toxic | Activity (A549): Non-Toxic | Activity (ECa-109 cell line): Non-Toxic | Activity (MGC-803): Non-Toxic | Ratio IC50 (SW-620 [1]): 1.2 | Ratio IC50 (SW-620 [2]): 0.81 | Ratio IC50 (SW-620 [3]): 1.17 | Ratio IC50 (SW-620 [4]): 1.14 | Ratio IC50 (SW-620 [5]): 1.07 | Ratio IC50 (SW-620 [6]): 0.97 | Ratio IC50 (HEK-293T [7]): 0.87 | Ratio IC50 (HEK-293T [8]): 0.83 | Ratio IC50 (HEK-293T [9]): 1.14 | Ratio IC50 (HEK-293T [10]): 1.08 | Ratio IC50 (HEK-293T [11]): 1.04 | inhibition (INH) [12]: Active | Activity (SW620/AD300 [13]): inactive | Activity (SW620/AD300 [14]): inactive | Activity (SW620/AD300 [15]): inactive | Activity [16]: Active

COc1ccc(CCN(C)CCCC(C#N)(c2ccc(OC)c(OC)c2)C(C)C)cc1OC (configuration not stated)
Ratio IC50 (SW-620 [17]): 1.29 | Ratio IC50 (SW-620 [18]): 1.18 | Ratio IC50 (SW-620 [19]): 1.1 | Ratio IC50 (HEK-293T [20]): 0.84 | Ratio IC50 (HEK-293T [21]): 1.07 | Ratio IC50 (HEK-293T [22]): 0.89
